From patent US7144586B2, “Compositions for preventing hormone induced adverse effects” (Lycored Natural Products Industries Ltd., priority 2000, dated 2006)
Entries after “also recorded” stand apart in the source; their conditions may differ.

Columns and labels:
[1] = tested on: ECC-1 endometrial cancer cells; test: ECC-1 endometrial cancer cell proliferation assay ([3H]thymidine incorporation); type: cell-based, human; conditions: for genistein-induced cell proliferation: stimulated by genistein at 1 MM (FIG. 4); for cell proliferation ([3H]thymidine incorporation into DNA): 0.4 and 4 μM, after three days (FIG. 1, panel A); for inhibition of cell proliferation: higher, non-physiological concentrations (10 μM), after three days in culture (FIG. 1, panel A); for effect on endometrial cancer cell growth over the concentration range: increasing concentrations, low to high
Method: (§1) Tetrahydrofuran (THF) containing 0.25% butylated hydroxytoluene was added to purified carotenoids as an antioxidant. Carotenoids were dissolved in THF at a concentration of 2 mMM and stored at −70 C. Immediately before use, stock solutions were thawed and added to the cell culture medium under nitrogen, followed by vigorous stirring. Precipitates formed were removed by filtration through Millex-HV filter (Millipore). Final carotenoid concentrations in the medium were determined by spectrophotometry after extraction in 2-propanol and n-hexane:dichloronomethane, as in U.S. Pat. No. 5,827,900.
(§2) The human endometrial cancer (estrogen dependent) cell line ECC-1 was developed by Dr. P. G. Satyaswaroop, Pennslyvania State University, Pennsylvania, U.S.A, and generously provided to us by Dr. R. Oregan, Northwestern University, Chicago, Ill., U.S.A. Human mammary cancer cell lines MCF-7 (estrogen dependent) and MDA-231 (hormone independent) were obtained from the American Type Culture Collection (Rockville, Md.).
(§3) Cells were cultured in DMEMM containing penicillin (100 U/ml), streptomycin (0.1 mg/ml)) nystatin (12.5 (g/ml), insulin (0.6 (g/ml), and 10% FCS. Cells were stripped of endogenous steroids according to the procedure of Vignon et al. (1987, Biochem. Biophys. Res. Comm., 146:1502–8) by successive passages in medium without phenol red containing 10% and then 3% of charcoal-stripped FCS. Cells were seeded into 96 multiwell plates (5,000 cells per well) in DMEMM containing 3% of charcoal-stripped FCS. After one day the medium was changed to one containing the solubilized carotenoid or THF alone. The medium was changed daily to ensure a continuous supply of carotenoid.
(§4) After incubation, the number of cells and the rate of cell proliferation were estimated by the incorporation of [^3H]thymidine incorporation into cellular DNA, as described in U.S. Pat. No. 5,827,900. Cell growth was also measured by direct cell counting with a Coulter counter after trypsinization and dilution in Isotone-II (Coulter Electronics, Luton, England). A good correlation was found between the two methods.
ECC-1 cells were incubated with increasing concentrations of the isoflavones genistein and daidzein, the two primary isoflavones in soy products, and with soy extract. Cell proliferation after three days was measured by [^3H]thymidine incorporation into DNA (FIG. 1, panel A).
ECC-1 cells were also incubated with a single high concentration (40 μM) of each of genistein, daidzein and soy extract. Cell proliferation was assayed daily over the course of three days.
(§5) The comparative effects of estradiol and genistein supplementation on the proliferation of the hormone-dependent cell lines MCF-7 mammary cancer and ECC-1 endometrial cancer were examined (FIG. 2).
(§6) Cell cultures stimulated either by genistein or estradiol, as described above, were further supplemented with lycopene and assayed for cell proliferation after three days in culture.
The ECC-1 hormone-dependent cell line was stimulated either by estradiol at 10 nM (FIG. 4, left panel) or by genistein at 1 MM (FIG. 4, panel B) and test cultures were additionally supplemented with various carotenoids.
The hormone-dependent endometrial cancer cell line ECC-1 was stimulated either by estradiol at 10 nM (FIG. 5, left panel) or by genistein at 1 μM (FIG. 5, right panel) and test cultures were additionally supplemented with various concentrations of lycopene. […] The lowest lycopene concentration tested (0.9 μM) is in the physiological range found in human serum.

[2] = tested on: rodent models (rat colon and oral carcinogenesis); conditions: dietary administration; cited from earlier work
[3] = tested on: estrogen receptor-positive human breast cancer cell lines; conditions: approximately 0.1 to 2–3 μM; cited from earlier work
[4] = tested on: estrogen receptor negative human breast cancer cell lines; conditions: approximately 0.1 to 2–3 μM; cited from earlier work
[5] = tested on: MCF-7 mammary cancer cells (estrogen dependent); test: MCF-7 mammary cancer cell proliferation assay ([3H]thymidine incorporation); type: cell-based, human; conditions: for phytoestrogen-induced cell proliferation: genistein (4 (M))
Method: as §1, §2, §3, §4, §5, §6
Thus genistein not only stimulates hormone-dependent cancer cell proliferation, but IGF-I as well as other growth factors further augment this effect.
Cell cultures supplemented as above were further supplemented with lycopene at 3 to 5 μM concentration.

[6] = tested on: MDA-231 mammary cancer cells (hormone independent); test: MDA-231 mammary cancer cell proliferation assay ([3H]thymidine incorporation); type: cell-based, human
Method: as §1, §2, §3
as §4, with “methods. […]” for “methods.”

[7] = single high concentration (40 μM), after one day of incubation (FIG. 1, panel B)
[8] = lycopene at 3 to 5 μM, three days in culture (FIG. 2)
[9] = high, non-physiological carotenoid concentrations, about one order of magnitude greater than physiological (FIG. 6, panel B)
[10] = lycopene at 3 to 5 μM, IGF-1 30 nM (FIG. 3)

## CC1=C(/C=C/C(C)=C/C=C/C(C)=C/C=C/C=C(C)/C=C/C=C(C)/C=C/C2=C(C)C(=O)[C@@H](O)CC2(C)C)C(C)(C)C[C@H](O)C1=O [astaxanthin]
[1]
  genistein-induced cell proliferation: effective inhibitors; also recorded: effectively inhibited
[2]
  anti-tumorigenic effects in vivo: anti-tumorigenic effects

## CC1=C(/C=C/C(C)=C/C=C/C(C)=C/C=C/C=C(C)/C=C/C=C(C)/C=C/C2=C(C)CCCC2(C)C)C(C)(C)CCC1 [beta-carotene]
[1]
  genistein-induced cell proliferation: effective inhibitors; also recorded: effectively inhibited

## COc1ccc(-c2coc3cc(O)cc(O)c3c2=O)cc1 [biochanin A]
[3]
  cell proliferation: induce cell proliferation
[4]
  cell proliferation: not in estrogen receptor negative

## O=c1oc2cc(O)ccc2c2oc3cc(O)ccc3c12 [counestrol]
[3]
  cell proliferation: induce cell proliferation
[4]
  cell proliferation: not in estrogen receptor negative

## O=c1c(-c2ccc(O)cc2)coc2cc(O)ccc12 [daidzein, reference compound]
[1]
  cell proliferation ([3H]thymidine incorporation into DNA): significant increase in cell proliferation rate; also recorded: stimulated cell proliferation
  inhibition of cell proliferation: not
  effect on endometrial cancer cell growth over the concentration range: only stimulatory
[1]; [7]
  cell proliferation: significantly increases cell proliferation; also recorded: stimulated cell proliferation

## O=c1c(-c2ccc(O)cc2)coc2cc(O)cc(O)c12 [genistein, reference compound]
[1]; 40 μM, by the second day in culture (FIG. 1, panel B)
  cell proliferation: inhibitory effects
[1]
  cell proliferation ([3H]thymidine incorporation into DNA): significant increase in cell proliferation rate; also recorded: stimulated cell proliferation
  inhibition of cell proliferation: inhibited cell proliferation
  effect on endometrial cancer cell growth over the concentration range: biphasic effects on proliferation
[1]; [7]
  cell proliferation: significantly increases cell proliferation; also recorded: stimulated cell proliferation
[5]; genistein plus IGF-1 30 nM, compared to genistein only (FIG. 3, panel A)
  stimulatory effect of genistein in the presence of IGF-I: significantly increases the cell proliferation rate; also recorded: further augmented
[5]; stimulating at low, inhibiting at high concentrations (FIG. 2, panel A)
  effect on proliferation over the concentration range: biphasic effects on proliferation
[3]
  cell proliferation: induce cell proliferation
[4]
  cell proliferation: not in estrogen receptor negative

## O=c1c(O)c(-c2ccc(O)cc2)oc2cc(O)cc(O)c12 [kaempferl]
[3]
  cell proliferation: induce cell proliferation
[4]
  cell proliferation: not in estrogen receptor negative

## O=c1cc(-c2ccc(O)c(O)c2)oc2cc(O)cc(O)c12 [luiolin]
[3]
  cell proliferation: induce cell proliferation
[4]
  cell proliferation: not in estrogen receptor negative

## CC(C)=CCC/C(C)=C/C=C/C(C)=C/C=C/C(C)=C/C=C/C=C(C)/C=C/C=C(C)/C=C/C=C(\C)CCC=C(C)C [lycopene]
[1]; estradiol at 10 nM, various lycopene concentrations, lowest 0.9 μM (FIG. 5)
  estradiol-induced cell proliferation, dose dependence: inhibits, in a dose dependent manner; also recorded: effective in inhibiting
[1]; genistein at 1 μM, various lycopene concentrations, lowest 0.9 μM (FIG. 5)
  genistein-induced cell proliferation, dose dependence: inhibits, in a dose dependent manner; also recorded: effective in inhibiting
[1]; [8]
  basal growth: significantly inhibited
  estradiol-induced growth: significantly inhibited
  genistein-induced growth: substantially inhibited; also recorded: significantly inhibited
[1]
  genistein-induced cell proliferation: effective inhibitors; also recorded: effectively inhibited
[5]; [9]
  phytoestrogen-induced cell proliferation: effective in significantly inhibiting
[5]; low (physiological) concentrations: lycopene 0.4 μM, phytoene and phytofluene mixture 6 μM (FIG. 6, panel A)
  phytoestrogen-induced cell proliferation: do not significantly affect
[5]; [8]
  basal growth: significantly inhibited
  estradiol-induced growth: significantly inhibited
[5]; [10]
  IGF stimulation of cell proliferation (IGF-1 and genistein): inhibits the cell proliferation; also recorded: inhibits IGF stimulation
[5]; lycopene at 3 to 5 MM, three days in culture (FIG. 2)
  genistein-induced growth: substantially inhibited; also recorded: significantly inhibited
[6]; [10]
  IGF stimulation of cell proliferation: inhibits IGF stimulation
  cell proliferation relative to controls: reduced to levels less than that of controls

## CC(C)=CCC/C(C)=C/CC/C(C)=C/CC/C(C)=C/C=C/C=C(\C)CC/C=C(\C)CC/C=C(\C)CCC=C(C)C [phytoene]
[1]
  genistein-induced cell proliferation: effective inhibitors
[5]; [9]
  phytoestrogen-induced cell proliferation: effective in significantly inhibiting

## IGF-1: Human recombinant IGF-1 purchased from GroPep
[5]; IGF-1 30 nM (FIG. 3, panel A)
  cell growth: significantly stimulates cell growth
[6]; IGF-1 30 nM (FIG. 3, panel B)
  cell growth: significantly stimulates cell growth
